Tests used:
Assay type in all cases: in vivo
Parameters in all cases: key: Type I mouse is a mouse confirmed to highly sensitive to the anticancer agent. By administering paclitaxel into this type of mouse, the tumor almost disappeared; Type II mouse is a mouse whose sensitivity to the anticancer agent was confirmed to be moderate. By administering paclitaxel into this type of mouse, the increase in tumor size is suppressed; Type III mouse is a mouse confirmed to be poor in sensitivity to the anticancer agent. Even if paclitaxel is administered into this type of mouse, the tumor size continues increasing
[1] = test system: human-derived breast cancer cultured cells (cell A); assay: Paclitaxel effect on tumor size in mice grafted with breast cancer cells A; conditions: Cell A graft; paclitaxel 20 mg/kg/day once a day for 5 day; change in tumor size to day 11; one line per mouse
Method: (§1) Five kinds of human-derived breast cancer cultured cells (cells A to E) were transplanted subcutaneously into the back of mice, and the mice were maintained for 21 to 28 days to graft the breast tumor cells thereon. 50 mice (Nos. 1 to 50 (Table 2)) on which the breast tumor cells had been grafted were thus created. From the back of each of these mice, a 2.5 mm×2.5 mm tissue section (about 50 mg) was cut off, and a lysis buffer (containing 0.1 w/v % Nonidet P-40 (NP-40) (manufactured by Calbiochem), 50 mM Tris-HCl (pH 7.4), 5 mM EDTA, 50 mM sodium fluoride, 1 mM sodium orthovanadate and 100 μl/ml protease cocktail (Sigma)) was added to this tissue section. The tissue section in the lysis buffer was homogenized with an electric homogenizer.
(§2) 20 mg/kg (mouse weight)/day of paclitaxel was administered once a day into each of mice Nos. 1 to 50 for 5 day. The tumor size from the initiation of administration to day 11 was measured. Depending on change in tumor size, mice Nos. 1 to 50 were classified into types I, II and III. Type I mouse is a mouse confirmed to highly sensitive to the anticancer agent. By administering paclitaxel into this type of mouse, the tumor almost disappeared. Type II mouse is a mouse whose sensitivity to the anticancer agent was confirmed to be moderate. By administering paclitaxel into this type of mouse, the increase in tumor size is suppressed. […]

[2] = test system: human-derived breast cancer cultured cells (cell B); assay: Paclitaxel effect on tumor size in mice grafted with breast cancer cells B; conditions: Cell B graft; paclitaxel 20 mg/kg/day once a day for 5 day; change in tumor size to day 11; one line per mouse
Method: as §1, §2

[3] = test system: human-derived breast cancer cultured cells (cell C); assay: Paclitaxel effect on tumor size in mice grafted with breast cancer cells C; conditions: Cell C graft; paclitaxel 20 mg/kg/day once a day for 5 day; change in tumor size to day 11; one line per mouse
Method: as §1, §2

[4] = test system: human-derived breast cancer cultured cells (cell D); assay: Paclitaxel effect on tumor size in mice grafted with breast cancer cells D; conditions: Cell D graft; paclitaxel 20 mg/kg/day once a day for 5 day; change in tumor size to day 11; one line per mouse
Method: as §1, §2

[5] = test system: human-derived breast cancer cultured cells (cell E); assay: Paclitaxel effect on tumor size in mice grafted with breast cancer cells E; conditions: Cell E graft; paclitaxel 20 mg/kg/day once a day for 5 day; change in tumor size to day 11; one line per mouse
Method: as §1, §2

CC(=O)O[C@H]1C(=O)[C@@]2(C)[C@H]([C@H](OC(=O)c3ccccc3)[C@]3(O)C[C@H](OC(=O)[C@H](O)[C@@H](NC(=O)c4ccccc4)c4ccccc4)C(C)=C1C3(C)C)[C@]1(OC(C)=O)CO[C@@H]1C[C@@H]2O [paclitaxel]
result of (4) [1]: Type I
result of (4) [2]: Type II
result of (4) [3]: Type II
result of (4) [4]: Type III
result of (4) [5]: Type III

From patent US20060173632A1, “Method for predicting effectiveness of chemotherapy” (SYSMEX CORPORATION, priority 2005, published 2006)
